The source made the active and inactive calls. The rule behind the calls is not given here.

Assay [1] has as its target Acyl-protein thioesterase 2 (Homo sapiens) (UniProt O95372). The assay is described as follows: LYPLA1 and LYPLA2 inhibitor potency, dose response, gel-based ABPP, fluorescence, HEK293T proteome (AID 651990). Particulars: HEK293T soluble proteome, gel-based ABPP FP-PEG-Rh fluorescence; LYPLA2.
In assay [2] the target is Acyl-protein thioesterase 1 (Homo sapiens) (UniProt O75608). Described as above. Particulars: HEK293T soluble proteome, gel-based ABPP FP-PEG-Rh fluorescence; LYPLA1.
Acyl-protein thioesterase 1 (Homo sapiens), sequence (O75608 whole entry, looked up): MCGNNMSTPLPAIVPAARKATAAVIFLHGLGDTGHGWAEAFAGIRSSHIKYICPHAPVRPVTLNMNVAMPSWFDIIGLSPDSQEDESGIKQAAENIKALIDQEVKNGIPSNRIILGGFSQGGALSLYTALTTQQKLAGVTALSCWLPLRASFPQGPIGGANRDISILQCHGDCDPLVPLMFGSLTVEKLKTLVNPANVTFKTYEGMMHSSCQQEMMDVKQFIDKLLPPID

Acyl-protein thioesterase 2 (Homo sapiens), sequence (O95372 whole entry, looked up): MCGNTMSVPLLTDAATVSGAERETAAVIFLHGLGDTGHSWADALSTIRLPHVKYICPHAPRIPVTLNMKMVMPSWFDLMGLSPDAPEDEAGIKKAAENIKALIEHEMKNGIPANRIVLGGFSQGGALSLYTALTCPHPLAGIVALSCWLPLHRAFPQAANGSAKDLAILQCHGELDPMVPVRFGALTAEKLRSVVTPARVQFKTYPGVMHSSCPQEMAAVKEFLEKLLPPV

In the case of `COc1ccc(N2CCN(C(=O)c3cc4c(s3)-c3ccccc3S(=O)(=O)C4)CC2)cc1`, the IC50 – broadly, the midpoint of a concentration-inhibition curve – is 0.144 µM in assay [1] and > 3 µM (inactive) in assay [2].

Consider `O=C(CN1CCN(C(=O)c2ccco2)CC1)Nc1cc(C(F)(F)F)ccc1Cl`, for which, in assay [1], the IC50 was > 3 µM (inactive).

The record behind these values is PubChem BioAssay AID651990 (The Scripps Research Institute Molecular Screening Center, 2013).
